Assay results: patent US9149532B2, “Pharmaceutical composition” (DAIICHI SANKYO COMPANY, LIMITED, priority 2007, dated 2015)

Assays:
[1] = Solubility of compound (1) in aqueous solutions; assay type: physicochemical
[2] = Absorbability after oral administration; assay type: in vivo; details: orally administered to a subject

CN1CCc2nc(C(=O)N[C@@H]3C[C@@H](C(=O)N(C)C)CC[C@@H]3NC(=O)C(=O)Nc3ccc(Cl)cn3)sc2C1 [compound (1), N^1-(5-chloropyridin-2-yl)-N^2-(4-[(dimethylamino)carbonyl]-2-{[(5-methyl-4,5,6,7-tetrahydrothiazolo[5,4-c]pyridin-2-yl)carbonyl]amino}cyclohexyl)ethanediamide]
solubility ([1]; neutral pH aqueous solution (e.g., neutral buffer solution)): solubility decreases | solubility ([1]; strong acidic aqueous solution): high solubility | absorbability [2]: excellent absorbability
